In publication PMC8474115 (Journal of Medicinal Chemistry, 2021):
Structures can show the parent of a compound that is named as a salt. Where two headings read alike, the source gives them in different places.

What was measured:
Sigma σ1 = target: T1, Sigma σ1 (Homo sapiens, UniProt Q99720); assay: Eurofins SafetyScreen panel; type: binding
T1 construct: Eurofins (contract assay) 278110

Potassium Channel [hERG] [1] = target: T2, Potassium Channel [hERG] (Homo sapiens, UniProt Q12809); assay: biochemical
PPARγ = target: T3, PPARγ (Homo sapiens, UniProt P37231); assay: Eurofins SafetyScreen panel; type: binding
T3 construct: Eurofins (contract assay)

Serotonin 5-HT5A = target: T4, Serotonin 5-HT5A (Homo sapiens, UniProt P47898); assay: Eurofins SafetyScreen panel; type: binding
T4 construct: Eurofins (contract assay) 272100

Dopamine D1 = target: T5, Dopamine D1 (Homo sapiens, UniProt P21728); assay: Eurofins SafetyScreen panel; type: binding
T5 construct: purchased Eurofins (Panlabs) SafetyScreen87 Panel

Muscarinic M4 = target: T6, Muscarinic M4 (Homo sapiens, UniProt P08173); assay: Eurofins SafetyScreen panel; type: binding
T6 construct: Eurofins (contract screening, SafetyScreen panel) PP223

[2] = target: T7, Protein Tyr Kinase, Insulin receptor (Homo sapiens, UniProt P06213); assay: Eurofins SafetyScreen panel; type: biochemical
T7 construct: Eurofins (contract screening, SafetyScreen panel) PP223

Potassium Channel [hERG] [3] = target: T2, Potassium Channel [hERG]; assay: Eurofins SafetyScreen panel
Opiate μ (OP3, MOP) = target: T8, Opiate μ (OP3, MOP) (Homo sapiens, UniProt P35372); assay: Eurofins SafetyScreen panel; type: binding
T8 construct: Eurofins (contract assay)

Serotonin 5-HT2A = target: T9, Serotonin 5-HT2A (Homo sapiens, UniProt P28223); assay: Eurofins SafetyScreen panel; type: binding
T9 construct: Eurofins (contract assay)

CYP1A2 = CYP1A2 (Homo sapiens, UniProt P05177); assay: Cytochrome P450 inhibition (Eurofins)
Melanocortin MC1 = target: T10, Melanocortin MC1 (Homo sapiens, UniProt Q01726); assay: Eurofins SafetyScreen panel; type: binding
T10 construct: purchased Eurofins (Panlabs) SafetyScreen87 Panel

Muscarinic M1 = target: T11, Muscarinic M1 (Homo sapiens, UniProt P11229); assay: Eurofins SafetyScreen panel; type: binding
T11 construct: Eurofins (contract screening, SafetyScreen panel) PP223
T11 sequence (P11229 1-460): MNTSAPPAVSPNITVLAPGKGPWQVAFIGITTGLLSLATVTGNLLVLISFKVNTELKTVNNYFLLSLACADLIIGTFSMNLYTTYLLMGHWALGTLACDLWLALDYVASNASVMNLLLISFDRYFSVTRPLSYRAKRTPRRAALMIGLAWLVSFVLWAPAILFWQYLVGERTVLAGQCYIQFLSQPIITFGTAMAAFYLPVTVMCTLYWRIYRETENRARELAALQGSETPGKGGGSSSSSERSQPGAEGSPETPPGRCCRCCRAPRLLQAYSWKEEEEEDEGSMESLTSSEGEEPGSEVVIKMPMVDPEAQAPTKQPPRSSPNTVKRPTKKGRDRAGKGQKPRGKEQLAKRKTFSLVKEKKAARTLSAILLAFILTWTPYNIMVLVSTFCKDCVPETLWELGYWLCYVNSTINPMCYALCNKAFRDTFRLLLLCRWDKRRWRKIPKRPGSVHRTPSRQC

Adenosine A1 = target: T12, Adenosine A1 (Homo sapiens, UniProt P30542); assay: Eurofins SafetyScreen panel; type: binding
T12 construct: Eurofins (contract screening, SafetyScreen panel) PP223

[4] = target: Ca Channel L-Type, Dihydropyridine (Rattus norvegicus, UniProt P22002); assay: Eurofins SafetyScreen panel; type: binding
Cannabinoid CB1 = target: T13, Cannabinoid CB1 (Homo sapiens, UniProt P21554); assay: Eurofins SafetyScreen panel; type: binding
T13 construct: purchased Eurofins (Panlabs) SafetyScreen87 Panel

5-HT2B receptors = target: T14, 5-HT2B receptors (Homo sapiens, UniProt P41595); assay: Agonist effect at 5-HT2B receptors (HTRF, Eurofins); type: cell-based; settings: 1 μM
T14 construct: Eurofins, France
Experimental: Experiment was performed in duplicate at Eurofins, France.

Histamine H3 = target: T15, Histamine H3 (Homo sapiens, UniProt Q9Y5N1); assay: Eurofins SafetyScreen panel; type: binding
T15 construct: purchased Eurofins (Panlabs) SafetyScreen87 Panel

Serotonin 5-HT7 = target: T16, Serotonin 5-HT7 (Homo sapiens, UniProt P34969); assay: Eurofins SafetyScreen panel; type: binding
T16 construct: Eurofins (contract assay) 272320

[5] = target: T17, Glutamate Metabotropic, mGlu5 (Homo sapiens, UniProt P41594); assay: Eurofins SafetyScreen panel; type: binding
T17 construct: purchased Eurofins (Panlabs) SafetyScreen87 Panel

[6] = target: T18, Serotonin Transporter (SERT) (Homo sapiens, UniProt P31645); assay: Eurofins SafetyScreen panel; type: binding
T18 construct: Eurofins (contract screening, SafetyScreen panel) PP223

Endothelin ETA = target: T19, Endothelin ETA (Homo sapiens, UniProt P25101); assay: Eurofins SafetyScreen panel; type: binding
T19 construct: purchased Eurofins (Panlabs) SafetyScreen87 Panel

Histamine H1 = target: T20, Histamine H1 (Homo sapiens, UniProt P35367); assay: Eurofins SafetyScreen panel; type: binding
T20 construct: Eurofins (contract screening, SafetyScreen panel) PP223

Protein Tyr Kinase, LCK = target: T21, Protein Tyr Kinase, LCK (Homo sapiens, UniProt P06239); assay: Eurofins SafetyScreen panel; type: biochemical
T21 construct: Eurofins (contract screening, SafetyScreen panel) PP223

CYP3A4 = CYP3A4 (Homo sapiens, UniProt P08684); assay: Cytochrome P450 inhibition (Eurofins)
Bradykinin B2 = target: T22, Bradykinin B2 (Homo sapiens, UniProt P30411); assay: Eurofins SafetyScreen panel; type: binding
T22 construct: Eurofins (contract screening, SafetyScreen panel) PP223

Neuropeptide Y Y1 = target: T23, Neuropeptide Y Y1 (Homo sapiens, UniProt P25929); assay: Eurofins SafetyScreen panel; type: binding
T23 construct: Eurofins (contract screening, SafetyScreen panel) PP223

MAO-B = target: T24, MAO-B (Homo sapiens, UniProt P27338); assay: Eurofins SafetyScreen panel; type: biochemical
T24 construct: Eurofins

[7] = read-out: %inh, 10 μM, additional batch

T20 sequence (P35367 whole entry): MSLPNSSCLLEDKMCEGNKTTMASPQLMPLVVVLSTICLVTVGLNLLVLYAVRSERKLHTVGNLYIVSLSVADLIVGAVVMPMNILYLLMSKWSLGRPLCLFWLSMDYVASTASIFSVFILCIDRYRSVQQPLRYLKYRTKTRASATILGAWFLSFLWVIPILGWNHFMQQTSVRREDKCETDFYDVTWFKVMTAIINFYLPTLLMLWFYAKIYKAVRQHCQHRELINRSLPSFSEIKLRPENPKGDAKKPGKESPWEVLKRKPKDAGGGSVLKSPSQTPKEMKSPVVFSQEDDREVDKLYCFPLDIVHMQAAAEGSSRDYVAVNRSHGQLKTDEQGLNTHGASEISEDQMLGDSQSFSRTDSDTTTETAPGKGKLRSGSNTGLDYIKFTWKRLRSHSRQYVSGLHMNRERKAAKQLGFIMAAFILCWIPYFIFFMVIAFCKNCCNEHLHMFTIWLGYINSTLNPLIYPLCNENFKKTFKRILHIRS
T1 sequence (Q99720 whole entry): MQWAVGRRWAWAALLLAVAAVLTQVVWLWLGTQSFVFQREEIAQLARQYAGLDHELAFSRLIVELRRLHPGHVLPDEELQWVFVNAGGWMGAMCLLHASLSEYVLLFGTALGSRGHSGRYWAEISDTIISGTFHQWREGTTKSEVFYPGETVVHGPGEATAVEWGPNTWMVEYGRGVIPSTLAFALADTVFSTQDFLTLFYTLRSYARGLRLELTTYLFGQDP
T4 sequence (P47898 whole entry): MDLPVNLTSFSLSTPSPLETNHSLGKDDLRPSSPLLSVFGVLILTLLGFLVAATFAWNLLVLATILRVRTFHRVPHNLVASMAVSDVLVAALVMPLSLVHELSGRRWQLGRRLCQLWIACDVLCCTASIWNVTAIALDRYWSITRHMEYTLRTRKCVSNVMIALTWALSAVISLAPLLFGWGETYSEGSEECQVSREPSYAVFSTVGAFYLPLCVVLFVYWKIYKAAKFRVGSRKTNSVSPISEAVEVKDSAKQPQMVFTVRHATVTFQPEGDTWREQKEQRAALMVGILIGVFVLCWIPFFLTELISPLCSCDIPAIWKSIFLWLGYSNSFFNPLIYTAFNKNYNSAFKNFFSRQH
Ca Channel L-Type, Dihydropyridine, sequence (P22002 whole entry): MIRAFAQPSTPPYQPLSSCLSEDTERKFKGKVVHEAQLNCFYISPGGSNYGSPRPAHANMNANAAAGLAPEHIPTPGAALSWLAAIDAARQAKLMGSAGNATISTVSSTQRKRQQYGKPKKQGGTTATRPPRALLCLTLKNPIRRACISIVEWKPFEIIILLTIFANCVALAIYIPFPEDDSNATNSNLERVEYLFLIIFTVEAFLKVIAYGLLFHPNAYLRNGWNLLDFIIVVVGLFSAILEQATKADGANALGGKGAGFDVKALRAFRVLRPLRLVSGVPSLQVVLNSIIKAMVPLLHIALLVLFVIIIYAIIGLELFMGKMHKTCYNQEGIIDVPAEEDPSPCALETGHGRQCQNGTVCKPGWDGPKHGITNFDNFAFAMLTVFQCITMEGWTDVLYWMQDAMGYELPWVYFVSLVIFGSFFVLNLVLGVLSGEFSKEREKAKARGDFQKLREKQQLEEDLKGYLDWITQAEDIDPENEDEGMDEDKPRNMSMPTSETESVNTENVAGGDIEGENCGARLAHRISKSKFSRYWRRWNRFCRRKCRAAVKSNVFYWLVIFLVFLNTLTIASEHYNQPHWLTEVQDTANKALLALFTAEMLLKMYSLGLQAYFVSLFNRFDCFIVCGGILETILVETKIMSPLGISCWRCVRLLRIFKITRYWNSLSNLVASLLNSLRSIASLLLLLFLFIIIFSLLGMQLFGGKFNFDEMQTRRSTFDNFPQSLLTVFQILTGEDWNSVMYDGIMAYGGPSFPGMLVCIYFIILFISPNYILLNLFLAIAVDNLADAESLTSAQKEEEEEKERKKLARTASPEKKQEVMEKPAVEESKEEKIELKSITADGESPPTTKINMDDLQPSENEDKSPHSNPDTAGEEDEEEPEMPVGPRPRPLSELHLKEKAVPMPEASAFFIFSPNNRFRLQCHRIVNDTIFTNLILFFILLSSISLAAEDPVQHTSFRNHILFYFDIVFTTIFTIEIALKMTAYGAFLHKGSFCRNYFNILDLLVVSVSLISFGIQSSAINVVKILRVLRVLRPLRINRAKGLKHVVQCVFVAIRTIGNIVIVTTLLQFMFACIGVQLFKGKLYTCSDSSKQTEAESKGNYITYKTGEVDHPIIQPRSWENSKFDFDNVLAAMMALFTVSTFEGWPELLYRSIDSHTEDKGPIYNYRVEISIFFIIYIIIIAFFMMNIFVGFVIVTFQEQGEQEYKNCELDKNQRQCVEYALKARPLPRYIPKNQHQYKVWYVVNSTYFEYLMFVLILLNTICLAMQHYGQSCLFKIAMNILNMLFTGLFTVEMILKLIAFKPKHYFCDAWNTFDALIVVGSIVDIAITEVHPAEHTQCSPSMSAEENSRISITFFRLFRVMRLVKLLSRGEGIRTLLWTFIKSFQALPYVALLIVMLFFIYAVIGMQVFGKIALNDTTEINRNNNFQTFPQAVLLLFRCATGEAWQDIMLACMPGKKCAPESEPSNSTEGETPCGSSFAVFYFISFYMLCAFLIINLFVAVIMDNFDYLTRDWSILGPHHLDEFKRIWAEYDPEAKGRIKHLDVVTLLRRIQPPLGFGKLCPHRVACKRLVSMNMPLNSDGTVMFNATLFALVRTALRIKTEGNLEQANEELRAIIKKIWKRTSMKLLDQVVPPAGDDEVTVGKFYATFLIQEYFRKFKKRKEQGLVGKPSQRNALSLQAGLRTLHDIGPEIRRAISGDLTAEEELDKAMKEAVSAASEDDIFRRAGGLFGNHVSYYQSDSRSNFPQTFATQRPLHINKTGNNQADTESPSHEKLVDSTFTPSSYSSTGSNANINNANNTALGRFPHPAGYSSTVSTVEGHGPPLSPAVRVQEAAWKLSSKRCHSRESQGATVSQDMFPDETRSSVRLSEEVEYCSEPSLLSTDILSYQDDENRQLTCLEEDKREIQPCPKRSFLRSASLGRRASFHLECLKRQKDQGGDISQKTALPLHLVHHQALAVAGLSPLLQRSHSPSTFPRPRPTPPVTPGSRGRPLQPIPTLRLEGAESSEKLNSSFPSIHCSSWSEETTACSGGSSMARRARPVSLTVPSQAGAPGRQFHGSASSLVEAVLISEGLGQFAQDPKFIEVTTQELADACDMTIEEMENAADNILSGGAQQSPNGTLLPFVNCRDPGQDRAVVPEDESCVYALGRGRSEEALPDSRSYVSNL
T16 sequence (P34969 whole entry): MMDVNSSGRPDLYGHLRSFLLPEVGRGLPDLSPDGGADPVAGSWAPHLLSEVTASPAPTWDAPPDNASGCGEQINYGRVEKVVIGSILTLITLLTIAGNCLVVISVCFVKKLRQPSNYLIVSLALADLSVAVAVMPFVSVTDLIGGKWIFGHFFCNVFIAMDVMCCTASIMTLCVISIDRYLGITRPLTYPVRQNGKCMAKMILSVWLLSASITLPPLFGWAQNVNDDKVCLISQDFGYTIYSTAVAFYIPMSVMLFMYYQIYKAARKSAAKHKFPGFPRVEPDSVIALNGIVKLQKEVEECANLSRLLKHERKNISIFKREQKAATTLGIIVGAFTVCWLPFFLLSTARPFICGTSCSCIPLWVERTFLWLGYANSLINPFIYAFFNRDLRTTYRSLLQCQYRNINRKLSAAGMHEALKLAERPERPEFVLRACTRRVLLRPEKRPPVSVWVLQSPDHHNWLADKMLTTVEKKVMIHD
T8 sequence (P35372 whole entry): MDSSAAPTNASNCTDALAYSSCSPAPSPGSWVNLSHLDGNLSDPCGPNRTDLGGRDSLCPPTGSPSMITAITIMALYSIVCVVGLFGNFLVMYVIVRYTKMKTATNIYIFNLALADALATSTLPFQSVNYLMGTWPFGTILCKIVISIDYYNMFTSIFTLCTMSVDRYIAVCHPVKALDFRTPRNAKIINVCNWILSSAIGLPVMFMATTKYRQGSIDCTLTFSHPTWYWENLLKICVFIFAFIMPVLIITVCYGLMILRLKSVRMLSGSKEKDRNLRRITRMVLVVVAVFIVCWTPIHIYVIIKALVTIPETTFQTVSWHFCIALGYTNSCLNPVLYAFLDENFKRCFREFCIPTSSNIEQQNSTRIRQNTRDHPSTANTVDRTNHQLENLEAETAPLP
CYP3A4, sequence (P08684 whole entry): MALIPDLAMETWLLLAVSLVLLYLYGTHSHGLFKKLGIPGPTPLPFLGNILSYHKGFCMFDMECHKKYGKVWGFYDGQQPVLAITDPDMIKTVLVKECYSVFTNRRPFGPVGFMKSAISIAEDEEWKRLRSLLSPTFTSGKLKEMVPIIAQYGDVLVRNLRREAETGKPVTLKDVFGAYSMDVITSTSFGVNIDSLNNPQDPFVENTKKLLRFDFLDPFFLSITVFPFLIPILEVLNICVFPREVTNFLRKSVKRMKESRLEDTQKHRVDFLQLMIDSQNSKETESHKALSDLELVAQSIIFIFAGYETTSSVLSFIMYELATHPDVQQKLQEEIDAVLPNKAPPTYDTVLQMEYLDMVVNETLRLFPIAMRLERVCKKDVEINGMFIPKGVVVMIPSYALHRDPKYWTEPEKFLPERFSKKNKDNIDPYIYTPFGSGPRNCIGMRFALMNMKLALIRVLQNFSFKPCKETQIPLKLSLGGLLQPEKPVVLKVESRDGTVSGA
T19 sequence (P25101 21-427): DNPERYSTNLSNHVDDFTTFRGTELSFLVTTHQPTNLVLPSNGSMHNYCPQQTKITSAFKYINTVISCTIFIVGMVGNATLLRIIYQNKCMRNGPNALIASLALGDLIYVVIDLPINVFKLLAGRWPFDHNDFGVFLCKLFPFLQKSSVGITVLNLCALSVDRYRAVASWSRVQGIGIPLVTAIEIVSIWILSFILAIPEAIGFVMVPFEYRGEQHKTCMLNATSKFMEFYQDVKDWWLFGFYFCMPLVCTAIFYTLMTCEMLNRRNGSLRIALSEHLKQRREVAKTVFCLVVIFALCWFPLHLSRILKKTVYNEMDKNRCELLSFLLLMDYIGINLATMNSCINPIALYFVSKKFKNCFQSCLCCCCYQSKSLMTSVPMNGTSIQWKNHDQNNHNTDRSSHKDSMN

Compound `O=S(=O)(c1cccc(F)c1)n1ccc2c(N3CCNCC3)nc3ccccc3c21` [FPPQ, 1-[(3-Fluorophenyl)sulfonyl]-4-(piperazin-1-yl)-1H-pyrrolo[3,2-c]quinoline dihydrochloride] has an IC50 (Sigma σ1) of 8.33 µM, a Ki (Sigma σ1) of 3.5 µM and an inhibition at 0.1 µM (Sigma σ1; read-out: %inh) of 7%. The inhibition at 1 µM (Sigma σ1; read-out: %inh) was 18%, the inhibition at 10 µM (Sigma σ1; read-out: %inh) was 51% and the inhibition at 100 µM (Sigma σ1; read-out: %inh) was 89%. For the same compound, the IC50 (Potassium Channel [hERG] [1]) was 1.15 µM, the inhibition at 10 µM (PPARγ) was 28% and the IC50 (Serotonin 5-HT5A) was 5.58 µM. For the same compound, the inhibition at 0.1 µM (Serotonin 5-HT5A; read-out: %inh, 0.1 μM) was 1%, the inhibition at 10 µM (Serotonin 5-HT5A; read-out: %inh, 10 μM) was 64% and the inhibition at 10 µM (Serotonin 5-HT5A; [7]) was 61%. For the same compound, the inhibition at 100 µM (Serotonin 5-HT5A; read-out: %inh, 100 μM) was 98%, the inhibition at 10 µM (Dopamine D1) was 27% and the inhibition at 10 µM (Muscarinic M4) was 8%. It also gave an inhibition at 10 µM [2] of -6%, a Ki (Potassium Channel [hERG] [3]) of 0.94 µM and an IC50 (Opiate μ (OP3, MOP)) of 7.08 µM. The inhibition at 0.1 µM (Opiate μ (OP3, MOP); read-out: %inh, 0.1 μM) was 3%, the inhibition at 10 µM (Opiate μ (OP3, MOP); read-out: %inh, 10 μM) was 59% and the inhibition at 10 µM (Opiate μ (OP3, MOP); [7]) was 61%. It also gave an inhibition at 100 µM (Opiate μ (OP3, MOP); read-out: %inh, 100 μM) of 97%, an inhibition at 10 µM (Serotonin 5-HT2A) of 50% and an IC50 (CYP1A2) of 12 µM. It also gave an inhibition at 10 µM (Melanocortin MC1) of 10%, an IC50 (Muscarinic M1) of 7.89 µM and a Ki (Muscarinic M1) of 1.94 µM. It also gave an inhibition at 0.1 µM (Muscarinic M1; read-out: %inh) of 3%, an inhibition at 1 µM (Muscarinic M1; read-out: %inh) of 13% and an inhibition at 100 µM (Muscarinic M1; read-out: %inh) of 98%. The inhibition at 10 µM (Adenosine A1) was 29%, the inhibition at 0.01 µM ([4]; 10 nM) was -4% and the inhibition at 0.1 µM ([4]; 0.1 μM) was 3%. It also gave an inhibition at 1 µM ([4]; 1 μM) of 60%, an inhibition at 10 µM [4] of 89% and an inhibition at 10 µM ([4]; additional batch) of 78%. For the same compound, the inhibition at 10 µM (Cannabinoid CB1) was 35%, the “agonistic effect at 5-HT2BR” value (5-HT2B receptors) was 3.6 % inhibition and the inhibition at 10 µM (Histamine H3) was 26%. For the same compound, the inhibition at 0.1 µM (Serotonin 5-HT7; read-out: %inh, 0.1 μM) was -1%, the inhibition at 1 µM (Serotonin 5-HT7; read-out: %inh, 1 μM) was 21% and the inhibition at 10 µM (Serotonin 5-HT7; read-out: %inh, 10 μM) was 65%. The inhibition at 10 µM (Serotonin 5-HT7; [7]) was 67%, the inhibition at 100 µM (Serotonin 5-HT7; read-out: %inh, 100 μM) was 93% and the inhibition at 10 µM [5] was 16%. For the same compound, the inhibition at 10 µM [6] was 18%, the inhibition at 10 µM (Endothelin ETA) was 3% and the IC50 (Histamine H1) was 0.46 µM. The Ki (Histamine H1) was 0.22 µM, the inhibition at 0.01 µM (Histamine H1; read-out: %inh, 10 nM) was 4% and the inhibition at 0.1 µM (Histamine H1; read-out: %inh, 0.1 μM) was 19%. The inhibition at 1 µM (Histamine H1; read-out: %inh, 1 μM) was 67%, the inhibition at 10 µM (Histamine H1; read-out: %inh, 10 μM) was 97% and the inhibition at 10 µM (Histamine H1; [7]) was 98%. For the same compound, the inhibition at 10 µM (Protein Tyr Kinase, LCK) was 6%, the IC50 (CYP3A4) was 57 µM and the inhibition at 10 µM (Bradykinin B2) was 0%. It also gave an inhibition at 10 µM (Neuropeptide Y Y1) of 37% and an inhibition at 10 µM (MAO-B) of 21%.
